{"source": "patent US3958011A", "about": "“Compositions of tri-n-propylacetic acid and salts thereof and treatment of neurological disorders with such compositions” (priority 1972, dated 1976)", "key": {"mice [1]": {"tested_on": "mice", "experiment": "Evasion test (tranquillizing properties)", "format": "in vivo", "conditions": "for Total number of exits per batch: batch of 28 mice; for Average time before first exit: controls 14", "procedure": "This test enables the exploring capacities of mice to be studied. A parallelepipedic lidless plywood box is used which contains an inclined plane, also of plywood, covered with a fine mesh. A horizontal datum line is marked on the inclined plane 2 cm below the point at which the plane bears on the box edge. The whole device is placed in an artificially lit room away from all shrill noise. Any crossing, in an upward direction, by a mouse of the datum line is termed an \"exit\".\nThe test was carried out on batches of 28 mice weighing about 22 g. The animals of each batch received an intraperitoneal dose of the compound to be studied so that each batch received a higher dose than the preceding batch.\nThirty minutes after administration of the compound, the animals were placed in the box by batches and kept at the bottom for 10 seconds by a movable board. The average length or time after which the first exit occurred was noted as well as the total number of exits per batch every minute for 5 minutes. The same details were also recorded for a control batch which had not received the compound. The following results were obtained with the preferred compound of the invention namely sodium tri-n-propylacetate: […]"}, "mice [2]": {"tested_on": "mice", "experiment": "Traction test (myorelaxant properties)", "format": "in vivo, mice (OF 1)", "conditions": "for Number of animals which have lost the traction reflex: groups of 10; for ED50: Mus musculus, ip, read-out: ED50, loss of traction reflex", "procedure": "This test enables sense of balance as well as muscular tonus and strength to be evaulated.\nThe test is carried out on groups of 10 male mice of the OF 1 strain weighing about 25 g. It consists of suspending the mice by the front paws to a horizontally stretched wire. Note is first taken of the time required by a group of control animals to effect recovery i.e. to place at least one of their back paws on the wire."}, "[3]": {"experiment": "Rota rod test (neurotoxicity)", "format": "in vivo", "conditions": "mouse, ip, mice, intraperitoneal, 30 min after administration, read-out: NTD50 (neurotoxic dose 50) in the rota rod test", "procedure": "The test used was that known as the rota rod test (BOISSIER-Therapie 1958, XIII, pp. 1074-1118). This test aims at enabling the animals' ability to coordinate their movements to be evaluated. It is carried out on batches of 10 mice each weighing about 25 g. The compound to be tested is administered by intraperitoneal route to the animals of each batch so that each batch receives a higher dose than that given to the preceding batch. Thirty minutes after administration, the mice are placed for two minutes on a wooden roller of 4.8 cm diameter which turns at the rate of 4 revolutions per minute. The roller has a rough surface to prevent the animals from slipping.\nBy this means, the neurotoxic dose 50 (NTD 50) can be determined, i.e. the dose of the compound with which one half of the animals can no longer stay on the roller during the period of time fixed as the reference period.\nIn order to obtain an activity index figure 30 minutes after administration the rota rod test described above was also performed using for comparison a known myorelaxant, namely mephenesin."}, "mice [4]": {"tested_on": "mice", "experiment": "Chimney test (tranquillizing properties)", "format": "in vivo", "conditions": "Mus musculus, ip; 50% failed to get out of the test-tube within 30 seconds", "procedure": "This test enables two groups of factors to be evaluated namely neuromuscular factors (muscular strength, agility, coordination of movements) and psychological factors (curiosity, fright, flight instinct).\nIt was carried out on batches of 10 mice weighing about 25 g each. The compound to be studied was given to each batch by intraperitoneal route so that each batch received a higher dose than the preceding batch. The mice were placed, one after another, head first in a test-tube 30 cm long and calibrated in accordance with the size of the mouse so that by moving backwards the animal could get out of the tube in less than 30 seconds. The number of animals which were unable to do this was noted."}, "[5]": {"experiment": "Acute toxicity (LD50), technique of Karber and Behrens", "conditions": "mouse, in vivo, ip", "procedure": "(§1) The LD50 was determined on the mouse by intraperitonel route using the technique of KARBER and BEHRENS."}, "mouse": {"tested_on": "mouse", "experiment": "Acute toxicity (LD50), technique of Karber and Behrens", "conditions": "intraperitoneal LD50, in words", "procedure": "as §1"}, "mice [6]": {"tested_on": "mice", "experiment": "Maximum electroshock seizure (anticonvulsant action)", "format": "in vivo, mice (OF 1)", "procedure": "This seizure is characterized in the mouse by extension of the back paws for 5 to 10 seconds. The extension is similar to that observed during the tonicoclonic seizures provoked by chemical convulsants such as pentylenetetrazol or strychnine.\nThe test was carried out on batches of 10 mice of the OF 1 strain weighing about 22 g. […] Fifteen minutes later, each animal received an electric shock of twice threshold intensity (about 60 volts).\nThis latter value is indicated by the symbol HD50 or hypnotic dose 50 and the efficacy index by the fraction: [formula]"}, "mice [7]": {"tested_on": "mice", "experiment": "Hole-board test (tranquillizing properties)", "format": "in vivo, mice (OF 1)", "conditions": "for Total number of holes explored: batch of 10", "procedure": "This test enables a quantitative evaluation to be made of the exploring capabilities of mice in relation to their curiosity. The material comprises a board 40 cm × 40 cm and 1.7 cm thick in which 16 holes, 3 cm in diameter, have been cut. The board is placed upon four legs sufficiently high (1.5 m) for the holes to appear bottomless to the animals. The experiment is carried out in as great a silence as possible.\nThe test was performed on batches of 10 male OF 1 mice weighing about 23 g. The animals of each batch were given an intraperitoneal dose of the compound to be tested so that each batch received a higher dose than the preceding batch. […] Thirty minutes after administration, each batch was placed in the middle of the board and the total number of holes explored by each batch was noted every minute for 5 minutes."}}, "data": [{"smiles": "CCCC(CCC)(CCC)C(=O)[O-].[Na+]", "note": "[Sodium tri-n-propylacetate, sodium tri-n-propylacetate]", "values": [{"measurement": "Total number of exits per batch", "setting": "mice [1]; 50 mg/kg i.p., 1 min.", "result": 54}, {"measurement": "Total number of exits per batch", "setting": "mice [1]; 50 mg/kg i.p., 2 min.", "result": 44}, {"measurement": "Total number of exits per batch", "setting": "mice [1]; 50 mg/kg i.p., 3 min.", "result": 43}, {"measurement": "Total number of exits per batch", "setting": "mice [1]; 50 mg/kg i.p., 4 min.", "result": 41}, {"measurement": "Total number of exits per batch", "setting": "mice [1]; 50 mg/kg i.p., 5 min.", "result": 28}, {"measurement": "Average time before first exit", "setting": "mice [1]; 50 mg/kg i.p.", "result": 25, "unit": "s"}, {"measurement": "Total number of exits per batch", "setting": "mice [1]; 75 mg/kg i.p., 1 min.", "result": 44}, {"measurement": "Total number of exits per batch", "setting": "mice [1]; 75 mg/kg i.p., 2 min.", "result": 37}, {"measurement": "Total number of exits per batch", "setting": "mice [1]; 75 mg/kg i.p., 3 min.", "result": 31}, {"measurement": "Total number of exits per batch", "setting": "mice [1]; 75 mg/kg i.p., 4 min.", "result": 34}, {"measurement": "Total number of exits per batch", "setting": "mice [1]; 75 mg/kg i.p., 5 min.", "result": 28}, {"measurement": "Average time before first exit", "setting": "mice [1]; 75 mg/kg i.p.", "result": 21, "unit": "s"}, {"measurement": "Number of animals which have lost the traction reflex", "setting": "mice [2]; 20 mg/kg i.p., 15 min.", "result": 1}, {"measurement": "Number of animals which have lost the traction reflex", "setting": "mice [2]; 20 mg/kg i.p., 30 min.", "result": 2}, {"measurement": "Number of animals which have lost the traction reflex", "setting": "mice [2]; 20 mg/kg i.p., 45 min.", "result": 0}, {"measurement": "Number of animals which have lost the traction reflex", "setting": "mice [2]; 50 mg/kg i.p., 15 min.", "result": 0}, {"measurement": "Number of animals which have lost the traction reflex", "setting": "mice [2]; 50 mg/kg i.p., 30 min.", "result": 1}, {"measurement": "Number of animals which have lost the traction reflex", "setting": "mice [2]; 50 mg/kg i.p., 45 min.", "result": 2}, {"measurement": "Number of animals which have lost the traction reflex", "setting": "mice [2]; 75 mg/kg i.p., 15 min.", "result": 3}, {"measurement": "Number of animals which have lost the traction reflex", "setting": "mice [2]; 75 mg/kg i.p., 30 min.", "result": 0}, {"measurement": "Number of animals which have lost the traction reflex", "setting": "mice [2]; 75 mg/kg i.p., 45 min.", "result": 1}, {"measurement": "Number of animals which have lost the traction reflex", "setting": "mice [2]; 100 mg/kg i.p., 15 min.", "result": 8}, {"measurement": "Number of animals which have lost the traction reflex", "setting": "mice [2]; 100 mg/kg i.p., 30 min.", "result": 1}, {"measurement": "Number of animals which have lost the traction reflex", "setting": "mice [2]; 100 mg/kg i.p., 45 min.", "result": 0}, {"measurement": "Number of animals which have lost the traction reflex", "setting": "mice [2]; 150 mg/kg i.p., 15 min.", "result": 10}, {"measurement": "Number of animals which have lost the traction reflex", "setting": "mice [2]; 150 mg/kg i.p., 30 min.", "result": 10}, {"measurement": "Number of animals which have lost the traction reflex", "setting": "mice [2]; 150 mg/kg i.p., 45 min.", "result": 9}, {"measurement": "ED50", "setting": "mice [2]; 0.25 h", "result": 80, "unit": "mg/kg"}, {"measurement": "ED50", "setting": "mice [2]; 0.5 h", "result": 110, "unit": "mg/kg"}, {"measurement": "ED50", "setting": "mice [2]; 0.75 h", "result": 130, "unit": "mg/kg"}, {"measurement": "Time of maximum myorelaxant activity after administration", "setting": "mice [2]; intraperitoneal", "result": 15, "unit": "min"}, {"measurement": "Activity index: NTD50/ED50", "setting": "mice [2]; rota rod NTD50 / traction ED50, 30 minutes after administration", "result": 1.1}, {"measurement": "TD50 at 0.5 h", "setting": "[3]", "result": 120, "unit": "mg/kg"}, {"measurement": "ED50", "setting": "mice [4]", "result": 72, "unit": "mg/kg"}, {"measurement": "LD50", "setting": "[5]", "result": 327, "unit": "mg/kg"}, {"measurement": "selectivity ratio", "setting": "[5]", "result": "20 to 80"}, {"measurement": "Acute toxicity compared with diazepam", "setting": "mouse", "result": "much less toxic than diazepam"}, {"measurement": "ED50", "setting": "mice [6]; Mus musculus, ip, 0.25 h, i.p., 15 min after administration, protection of 50% against tonic seizures", "result": 130, "unit": "mg/kg"}, {"measurement": "Efficacy index (HD50 compared with ED50)", "setting": "mice [6]; electroshock ED50 versus hypnotic dose 50", "result": 1.0}, {"measurement": "Total number of holes explored", "setting": "mice [7]; 50 mg/kg i.p., 1 min.", "result": 15}, {"measurement": "Total number of holes explored", "setting": "mice [7]; 50 mg/kg i.p., 2 min.", "result": 13}, {"measurement": "Total number of holes explored", "setting": "mice [7]; 50 mg/kg i.p., 3 min.", "result": 14}, {"measurement": "Total number of holes explored", "setting": "mice [7]; 50 mg/kg i.p., 4 min.", "result": 19}, {"measurement": "Total number of holes explored", "setting": "mice [7]; 50 mg/kg i.p., 5 min.", "result": 17}, {"measurement": "Total number of holes explored", "setting": "mice [7]; 75 mg/kg i.p., 1 min.", "result": 2}, {"measurement": "Total number of holes explored", "setting": "mice [7]; 75 mg/kg i.p., 2 min.", "result": 6}, {"measurement": "Total number of holes explored", "setting": "mice [7]; 75 mg/kg i.p., 3 min.", "result": 3}, {"measurement": "Total number of holes explored", "setting": "mice [7]; 75 mg/kg i.p., 4 min.", "result": 1}, {"measurement": "Total number of holes explored", "setting": "mice [7]; 75 mg/kg i.p., 5 min.", "result": 7}, {"measurement": "Effect on the animals' curiosity", "setting": "mice [7]; hole-board test, in words", "result": "tends to reduce the animals' curiosity"}]}]}
